The target of this assay is EGFR kinase domain (epidermal growth factor receptor) (Homo sapiens, UniProt P00533). As to the kind of experiment: biochemical.

Kd data for one compound are collected here from article PMC12807552, “The Synthesis of BODIPY-TKI Conjugates and Investigation of Their Ability to Target the Epidermal Growth Factor Receptor” (Targets (Basel), 2023).

As usually defined, the Kd is a measure of binding affinity in units of concentration. Low readings indicate tighter binding, high ones weaker binding.

EGFR kinase domain (epidermal growth factor receptor), sequence (P00533 695-1210): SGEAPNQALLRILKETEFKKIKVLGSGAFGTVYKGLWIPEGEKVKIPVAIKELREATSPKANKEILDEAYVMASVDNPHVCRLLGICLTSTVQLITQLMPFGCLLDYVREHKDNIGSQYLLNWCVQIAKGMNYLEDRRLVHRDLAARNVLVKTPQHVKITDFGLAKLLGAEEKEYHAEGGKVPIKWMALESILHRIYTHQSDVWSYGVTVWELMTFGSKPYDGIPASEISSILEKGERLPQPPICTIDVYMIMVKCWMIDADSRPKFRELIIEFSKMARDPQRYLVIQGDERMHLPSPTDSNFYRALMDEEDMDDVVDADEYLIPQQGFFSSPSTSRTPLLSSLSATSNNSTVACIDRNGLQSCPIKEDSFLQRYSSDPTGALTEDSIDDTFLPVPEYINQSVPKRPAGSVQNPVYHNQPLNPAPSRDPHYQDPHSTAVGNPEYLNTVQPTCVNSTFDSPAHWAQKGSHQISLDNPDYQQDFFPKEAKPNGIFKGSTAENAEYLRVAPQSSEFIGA

With `COCCOc1cc2ncnc(Nc3cccc(-c4cn(CCOCCOCCOCCNC(=S)Nc5ccc(-c6c7ccccc7c7n6[B-](F)(F)[N+]6=C(c8ccc(N=C=S)cc8)c8ccccc8C6=C7c6cc(OC)cc(OC)c6)cc5)nn4)c3)c2cc1OCCOC` [compound 5, BODIPY-monoTKI], the Kd worked out at 8.04 µM.
